In ChEMBL document CHEMBL3877302, “Design and Synthesis of a New Series of 4-Heteroarylamino-1'-azaspiro[oxazole-5,3'-bicyclo[2.2.2]octanes as α7 Nicotinic Receptor Agonists. 1. Development of Pharmacophore and Early Structure-Activity Relationship” (J Med Chem, 2016):
Activity calls are given as the source filed them. The calls are words filed in the database; no cut-off is given here.

Tested on: not listed separately
Experiment: Oral bioavailability in rat at 10 mg/kg
Type: ADME, organism-based
Details: in vivo

| SMILES | bioavailability |
| --- | --- |
| COc1ccc2nc(NC3=NC[C@@]4(CN5CCC4CC5)O3)sc2c1 | 24% |

Tested on: not listed separately
Experiment: Selectivity ratio of IC50 for human 5-HT3A expressed in HEK293 cells to EC50 for rat alpha3beta4 nAChR expressed in HEK293 cells
Type: ADME, cell-based
Details: not given

| SMILES | Ratio IC50/EC50 |
| --- | --- |
| COc1ccc2nc(NC3=NC[C@@]4(CN5CCC4CC5)O3)sc2c1 | > 700 |

Target: T1, Neuronal acetylcholine receptor subunit alpha-7 (Rattus norvegicus, UniProt Q05941)
T1 sequence (Q05941 whole entry): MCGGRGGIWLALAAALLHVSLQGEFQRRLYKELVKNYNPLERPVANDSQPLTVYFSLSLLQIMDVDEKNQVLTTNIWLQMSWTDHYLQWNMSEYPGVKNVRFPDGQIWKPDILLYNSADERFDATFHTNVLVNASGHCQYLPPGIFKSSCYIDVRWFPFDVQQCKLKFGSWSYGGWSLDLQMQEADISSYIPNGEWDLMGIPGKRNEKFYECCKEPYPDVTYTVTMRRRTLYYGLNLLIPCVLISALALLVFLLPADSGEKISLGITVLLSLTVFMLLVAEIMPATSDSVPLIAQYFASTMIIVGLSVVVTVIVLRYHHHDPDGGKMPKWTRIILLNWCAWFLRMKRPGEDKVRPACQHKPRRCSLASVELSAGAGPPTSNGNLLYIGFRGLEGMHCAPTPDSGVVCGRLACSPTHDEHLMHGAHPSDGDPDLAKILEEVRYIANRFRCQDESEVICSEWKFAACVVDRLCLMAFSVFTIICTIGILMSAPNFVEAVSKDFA
Experiment: Partial agonist activity at rat alpha7 nAChR expressed in HEK293 cells co-expressing human RIC3 at holding potential of -90 mV by whole-cell voltage clamp technique
Type: cell-based
Details: not given

| SMILES | EC50 |
| --- | --- |
| c1csc(NC2=NCC3(CN4CCC3CC4)O2)n1 (racemic) | 1300 nM |
| COc1ccc2nc(NC3=NCC4(CN5CCC4CC5)O3)sc2c1 (centres undefined) | 600 nM |
| c1ccc2sc(NC3=NCC4(CN5CCC4CC5)O3)nc2c1 (racemic) | 500 nM |
| c1ccc2sc(NC3=NC[C@@]4(CN5CC[C@@H]4C5)O3)nc2c1 | 280 nM |
| COc1ccc2nc(NC3=NC[C@@]4(CN5CCC4CC5)O3)sc2c1 | 400 nM |

Tested on: not listed separately
Experiment: Metabolic stability in mouse microsomes assessed as compound remaining measured after 10 mins
Type: ADME, Microsome
Details: read-out: Stability

| SMILES | remaining at 10 min |
| --- | --- |
| COc1ccc2nc(NC3=NC[C@@]4(CN5CCC4CC5)O3)sc2c1 | > 60% |

Target: Neuronal acetylcholine receptor; alpha3/beta4 (Rattus norvegicus, UniProt P04757+P12392)
Sequence (P04757 whole entry): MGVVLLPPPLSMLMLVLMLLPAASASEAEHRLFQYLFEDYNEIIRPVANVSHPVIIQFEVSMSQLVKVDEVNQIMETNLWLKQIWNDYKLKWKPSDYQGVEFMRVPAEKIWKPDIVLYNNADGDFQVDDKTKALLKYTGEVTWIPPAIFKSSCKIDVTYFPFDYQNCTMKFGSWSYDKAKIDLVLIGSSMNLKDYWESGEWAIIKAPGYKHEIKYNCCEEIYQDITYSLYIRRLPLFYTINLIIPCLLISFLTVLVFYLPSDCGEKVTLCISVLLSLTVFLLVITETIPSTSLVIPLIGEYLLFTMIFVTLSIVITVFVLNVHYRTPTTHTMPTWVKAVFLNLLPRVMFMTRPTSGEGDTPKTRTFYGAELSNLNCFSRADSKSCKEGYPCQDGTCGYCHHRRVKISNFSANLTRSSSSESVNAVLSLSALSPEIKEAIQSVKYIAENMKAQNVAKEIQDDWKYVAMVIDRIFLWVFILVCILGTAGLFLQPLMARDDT
Sequence (P12392 whole entry): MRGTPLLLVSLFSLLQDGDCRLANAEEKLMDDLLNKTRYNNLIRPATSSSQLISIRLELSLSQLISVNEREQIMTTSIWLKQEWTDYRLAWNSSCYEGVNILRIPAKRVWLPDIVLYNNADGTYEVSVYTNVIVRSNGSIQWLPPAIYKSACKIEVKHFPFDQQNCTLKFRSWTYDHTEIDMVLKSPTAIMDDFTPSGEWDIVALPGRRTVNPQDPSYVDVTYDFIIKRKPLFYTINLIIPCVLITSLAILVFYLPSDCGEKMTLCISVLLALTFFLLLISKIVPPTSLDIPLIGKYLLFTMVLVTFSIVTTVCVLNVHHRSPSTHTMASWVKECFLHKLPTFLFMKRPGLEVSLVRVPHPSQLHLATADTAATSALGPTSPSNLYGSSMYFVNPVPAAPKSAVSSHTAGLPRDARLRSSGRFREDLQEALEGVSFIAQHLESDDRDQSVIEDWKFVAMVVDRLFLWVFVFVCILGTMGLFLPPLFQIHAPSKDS
Experiment: Agonist activity at rat alpha3beta4 nAChR expressed in HEK293 cells for 2 mins by FLIPR assay
Type: cell-based
Details: not given

| SMILES | EC50 |
| --- | --- |
| COc1ccc2nc(NC3=NC[C@@]4(CN5CCC4CC5)O3)sc2c1 | > 100 µM |

Target: Voltage-gated inwardly rectifying potassium channel KCNH2 (Homo sapiens, UniProt Q12809)
Sequence (Q12809 whole entry): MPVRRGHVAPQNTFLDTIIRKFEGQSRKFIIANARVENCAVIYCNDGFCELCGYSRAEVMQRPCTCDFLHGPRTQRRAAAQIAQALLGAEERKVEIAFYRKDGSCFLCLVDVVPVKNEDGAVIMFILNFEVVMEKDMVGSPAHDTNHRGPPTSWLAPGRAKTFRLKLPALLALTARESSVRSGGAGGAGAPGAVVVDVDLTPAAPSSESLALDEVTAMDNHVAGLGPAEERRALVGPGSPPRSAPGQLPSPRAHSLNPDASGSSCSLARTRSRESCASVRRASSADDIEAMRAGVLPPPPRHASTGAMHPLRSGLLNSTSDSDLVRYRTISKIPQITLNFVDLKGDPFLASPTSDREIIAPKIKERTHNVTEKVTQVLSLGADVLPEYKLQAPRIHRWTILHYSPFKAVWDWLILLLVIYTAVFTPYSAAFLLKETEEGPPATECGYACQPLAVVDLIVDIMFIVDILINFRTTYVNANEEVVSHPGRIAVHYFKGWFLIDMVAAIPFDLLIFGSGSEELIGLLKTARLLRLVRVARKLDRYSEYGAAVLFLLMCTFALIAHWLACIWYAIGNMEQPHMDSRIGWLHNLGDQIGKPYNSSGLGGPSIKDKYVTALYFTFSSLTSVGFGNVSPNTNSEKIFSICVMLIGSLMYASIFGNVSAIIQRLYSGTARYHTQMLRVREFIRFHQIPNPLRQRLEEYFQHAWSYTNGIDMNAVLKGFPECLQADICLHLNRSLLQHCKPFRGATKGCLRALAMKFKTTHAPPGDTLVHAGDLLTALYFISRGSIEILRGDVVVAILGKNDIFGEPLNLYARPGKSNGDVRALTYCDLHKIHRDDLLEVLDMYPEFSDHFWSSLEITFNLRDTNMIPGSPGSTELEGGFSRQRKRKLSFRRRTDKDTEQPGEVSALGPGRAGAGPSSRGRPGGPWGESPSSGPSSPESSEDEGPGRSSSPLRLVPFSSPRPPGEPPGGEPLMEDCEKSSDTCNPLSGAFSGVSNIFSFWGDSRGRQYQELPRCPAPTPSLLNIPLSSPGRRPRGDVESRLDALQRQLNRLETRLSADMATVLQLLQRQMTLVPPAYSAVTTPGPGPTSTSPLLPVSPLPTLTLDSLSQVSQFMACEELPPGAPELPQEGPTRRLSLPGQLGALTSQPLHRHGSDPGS
Experiment: Inhibition of human ERG by patch clamp assay
Details: not given

| SMILES | IC50 |
| --- | --- |
| COc1ccc2nc(NC3=NC[C@@]4(CN5CCC4CC5)O3)sc2c1 | 1300 nM |

Target: Neuronal acetylcholine receptor; alpha4/beta2 (Rattus norvegicus, UniProt P09483+P12390)
Experiment: Agonist activity at rat alpha4beta2 nAChR expressed in HEK293 cells for 2 mins by FLIPR assay
Type: cell-based
Details: not given

| SMILES | EC50 |
| --- | --- |
| COc1ccc2nc(NC3=NC[C@@]4(CN5CCC4CC5)O3)sc2c1 | > 100 µM |

Tested on: Mus musculus
Experiment: Cognitive enhancing effect in C57Bl/6 mouse at 3 and 10 mg/kg, sc administered 30 mins prior to training measured after 24 hrs by novel recognition assay
Type: functional, organism-based
Details: not given

| SMILES | Activity |
| --- | --- |
| COc1ccc2nc(NC3=NC[C@@]4(CN5CCC4CC5)O3)sc2c1 | Active |

Tested on: not listed separately
Experiment: Selectivity ratio of IC50 for human 5-HT3A expressed in HEK293 cells to EC50 for rat alpha7 nAChR expressed in HEK293 cells co-expressing human RIC3
Type: ADME, cell-based
Details: not given

| SMILES | Ratio IC50/EC50 |
| --- | --- |
| c1csc(NC2=NCC3(CN4CCC3CC4)O2)n1 (racemic) | 0.1 |
| COc1ccc2nc(NC3=NC[C@]4(CN5CCC4CC5)O3)sc2c1 | 85 |
| Cc1ccc2nc(NC3=NCC4(CN5CCC4CC5)O3)sc2c1 (centres undefined) | 32 |
| COc1ccc2nc(NC3=NC4(CO3)CN3CCC4CC3)sc2c1 (centres undefined) | 6 |
| COc1ccc2nc(NC3=NCCC4(CN5CCC4CC5)O3)sc2c1 (centres undefined) | 17 |
| COc1ccc2nc(NC3=NCC4(CN5CCC4CC5)O3)sc2c1 (centres undefined) | 153 |
| COc1cccc2sc(NC3=NCC4(CN5CCC4CC5)O3)nc12 (centres undefined) | 0.02 |
| c1ccc2sc(NC3=NCC4(CN5CCC[C@@H]4C5)O3)nc2c1 (mixture of isomers) | 3 |
| c1ccc(-c2ccc(NC3=NC[C@@]4(CN5CCC4CC5)O3)nc2)cc1 | 30 |
| c1ccc2sc(NC3=NCC4(CN5CCC4CC5)O3)nc2c1 (racemic) | 1 to 1.8 |
| c1ccc(-c2csc(NC3=NCC4(CN5CCC4CC5)O3)n2)cc1 (racemic) | 0.02 |
| c1ccc2sc(NC3=NC[C@@]4(CN5CCC4CC5)O3)nc2c1 | 1 |
| c1ccc2sc(NC3=NC[C@@]4(CN5CC[C@@H]4C5)O3)nc2c1 | 22 |
| COc1ccc2sc(NC3=NCC4(CN5CCC4CC5)O3)nc2c1 (centres undefined) | 0.02 |
| c1ccc(-c2ccnc(NC3=NC[C@@]4(CN5CCC4CC5)O3)c2)cc1 | 9 to 9.6 |
| COc1ccc2nc(NC3=NC[C@@]4(CN5CCC4CC5)O3)sc2c1 | 66 |

Target: T2, 5-hydroxytryptamine receptor 3A (Homo sapiens, UniProt P46098)
T2 sequence (P46098 whole entry): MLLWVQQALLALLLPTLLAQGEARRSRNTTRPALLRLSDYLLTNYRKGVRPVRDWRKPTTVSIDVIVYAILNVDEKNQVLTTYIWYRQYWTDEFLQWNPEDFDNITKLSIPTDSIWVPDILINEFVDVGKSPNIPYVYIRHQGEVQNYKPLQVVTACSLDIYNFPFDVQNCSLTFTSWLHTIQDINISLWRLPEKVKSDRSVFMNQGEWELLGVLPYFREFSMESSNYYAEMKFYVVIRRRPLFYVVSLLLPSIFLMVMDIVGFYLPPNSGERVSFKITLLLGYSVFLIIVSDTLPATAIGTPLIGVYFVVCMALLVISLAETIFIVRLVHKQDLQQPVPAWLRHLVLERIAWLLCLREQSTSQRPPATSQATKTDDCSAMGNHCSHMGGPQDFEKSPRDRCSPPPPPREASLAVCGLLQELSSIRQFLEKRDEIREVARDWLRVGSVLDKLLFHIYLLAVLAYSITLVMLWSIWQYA
Experiment: Antagonist activity at human 5-HT3A expressed in HEK293 cells assessed as reduction in acetylcholine-induced activity preincubated for 30 mins followed by addition of acetylcholine measured for 2 mins by Fluo-4AM dye based FLIPR assay
Type: cell-based
Details: not given

| SMILES | IC50 |
| --- | --- |
| c1csc(NC2=NCC3(CN4CCC3CC4)O2)n1 (racemic) | 25 nM |
| COc1ccc2nc(NC3=NC[C@]4(CN5CCC4CC5)O3)sc2c1 | > 97000 nM |
| Cc1ccc2nc(NC3=NCC4(CN5CCC4CC5)O3)sc2c1 (centres undefined) | 3800 nM |
| COc1ccc2nc(NC3=NC4(CO3)CN3CCC4CC3)sc2c1 (centres undefined) | 47000 nM |
| COc1ccc2nc(NC3=NCCC4(CN5CCC4CC5)O3)sc2c1 (centres undefined) | 64000 nM |
| COc1ccc2nc(NC3=NCC4(CN5CCC4CC5)O3)sc2c1 (centres undefined) | 19000 nM |
| COc1cccc2sc(NC3=NCC4(CN5CCC4CC5)O3)nc12 (centres undefined) | 13 nM |
| c1ccc2sc(NC3=NCC4(CN5CCC[C@@H]4C5)O3)nc2c1 (mixture of isomers) | 950 nM |
| c1ccc(-c2ccc(NC3=NC[C@@]4(CN5CCC4CC5)O3)nc2)cc1 | 22000 nM |
| c1ccc2sc(NC3=NCC4(CN5CCC4CC5)O3)nc2c1 (racemic) | 21 to 36 nM |
| c1ccc(-c2csc(NC3=NCC4(CN5CCC4CC5)O3)n2)cc1 (racemic) | 11 nM |
| c1ccc2sc(NC3=NC[C@@]4(CN5CCC4CC5)O3)nc2c1 | 21 nM |
| c1ccc2sc(NC3=NC[C@@]4(CN5CC[C@@H]4C5)O3)nc2c1 | 480 nM |
| COc1ccc2sc(NC3=NCC4(CN5CCC4CC5)O3)nc2c1 (centres undefined) | 19 nM |
| c1ccc(-c2ccnc(NC3=NC[C@@]4(CN5CCC4CC5)O3)c2)cc1 | 85 nM |
| COc1ccc2nc(NC3=NC[C@@]4(CN5CCC4CC5)O3)sc2c1 | 9100 nM |

Tested on: not listed separately
Experiment: Clearance in rat
Type: ADME
Details: in vivo

| SMILES | clearance |
| --- | --- |
| COc1ccc2nc(NC3=NC[C@@]4(CN5CCC4CC5)O3)sc2c1 | 320 mL/min/kg |

Tested on: not listed separately
Experiment: Plasma concentration in Wistar rat at 10 mg/kg, sc measured after 30 mins by LC-MS/MS analysis
Type: ADME, organism-based
Details: not given

| SMILES | concentration at 0.5 h |
| --- | --- |
| COc1ccc2nc(NC3=NC[C@@]4(CN5CCC4CC5)O3)sc2c1 | 760 nM |

Target: T1, Neuronal acetylcholine receptor subunit alpha-7
Experiment: Agonist activity at rat alpha7 nAChR expressed in HEK293 cells co-expressing human RIC3 measured for 2 mins by FLIPR assay
Type: cell-based
Details: not given

| SMILES | EC50 |
| --- | --- |
| c1csc(NC2=NCC3(CN4CCC3CC4)O2)n1 (racemic) | 200 nM |
| COc1ccc2nc(NC3=NC[C@]4(CN5CCC4CC5)O3)sc2c1 | 1900 nM |
| Cc1ccc2nc(NC3=NCC4(CN5CCC4CC5)O3)sc2c1 (centres undefined) | 120 nM |
| COc1ccc2nc(NC3=NC4(CO3)CN3CCC4CC3)sc2c1 (centres undefined) | 7800 nM |
| COc1ccc2nc(NC3=NCCC4(CN5CCC4CC5)O3)sc2c1 (centres undefined) | 3700 nM |
| COc1ccc2nc(NC3=NCC4(CN5CCC4CC5)O3)sc2c1 (centres undefined) | 120 nM |
| COc1cccc2sc(NC3=NCC4(CN5CCC4CC5)O3)nc12 (centres undefined) | 830 nM |
| c1ccc2sc(NC3=NCC4(CN5CCC[C@@H]4C5)O3)nc2c1 (mixture of isomers) | 290 nM |
| c1ccc(-c2ccc(NC3=NC[C@@]4(CN5CCC4CC5)O3)nc2)cc1 | 750 nM |
| c1ccc2sc(NC3=NCC4(CN5CCC4CC5)O3)nc2c1 (racemic) | 20 to 21 nM |
| c1ccc(-c2csc(NC3=NCC4(CN5CCC4CC5)O3)n2)cc1 (racemic) | 450 nM |
| c1ccc2sc(NC3=NC[C@@]4(CN5CCC4CC5)O3)nc2c1 | 21 nM |
| c1ccc2sc(NC3=NC[C@@]4(CN5CC[C@@H]4C5)O3)nc2c1 | 22 nM |
| COc1ccc2sc(NC3=NCC4(CN5CCC4CC5)O3)nc2c1 (centres undefined) | 1100 nM |
| COc1ccc2nc(NC3=NC[C@@]4(CN5CCC4CC5)O3)sc2c1 | 140 nM |

Tested on: not listed separately
Experiment: Metabolic stability in rat microsomes assessed as compound remaining measured after 10 mins
Type: ADME, Microsome
Details: read-out: Stability

| SMILES | remaining at 10 min |
| --- | --- |
| COc1ccc2nc(NC3=NC[C@@]4(CN5CCC4CC5)O3)sc2c1 | > 60% |

Tested on: not listed separately
Experiment: Ratio of drug level in Wistar rat brain to plasma at 10 mg/kg, sc
Type: ADME, organism-based
Details: read-out: BPR

| SMILES | Kp |
| --- | --- |
| COc1ccc2nc(NC3=NC[C@@]4(CN5CCC4CC5)O3)sc2c1 | 7 |

Tested on: not listed separately
Experiment: Drug uptake in Wistar rat brain at 10 mg/kg, sc measured after 30 mins by LC-MS/MS analysis
Type: ADME, organism-based
Details: read-out: Drug uptake

| SMILES | concentration at 0.5 h |
| --- | --- |
| COc1ccc2nc(NC3=NC[C@@]4(CN5CCC4CC5)O3)sc2c1 | 5.3 µM |

Tested on: not listed separately
Experiment: Selectivity ratio of IC50 for human 5-HT3A expressed in HEK293 cells to EC50 for rat alpha4beta2 nAChR expressed in HEK293 cells
Type: ADME, cell-based
Details: not given

| SMILES | Ratio IC50/EC50 |
| --- | --- |
| COc1ccc2nc(NC3=NC[C@@]4(CN5CCC4CC5)O3)sc2c1 | > 700 |

Tested on: not listed separately
Experiment: Selectivity ratio of IC50 for human 5-HT3A expressed in HEK293 cells to EC50 for rat alpha1beta1deltaepsilon nAChR expressed in HEK293 cells
Type: ADME, cell-based
Details: not given

| SMILES | Ratio IC50/EC50 |
| --- | --- |
| COc1ccc2nc(NC3=NC[C@@]4(CN5CCC4CC5)O3)sc2c1 | > 700 |

Tested on: not listed separately
Experiment: Metabolic stability in human microsomes assessed as compound remaining measured after 10 mins
Type: ADME, Microsome
Details: read-out: Stability

| SMILES | remaining at 10 min |
| --- | --- |
| COc1ccc2nc(NC3=NC[C@@]4(CN5CCC4CC5)O3)sc2c1 | > 60% |

Target: Nicotinic acetylcholine receptor alpha-1/beta-1/delta/epsilon (Rattus norvegicus, UniProt P09660+P25108+P25109+P25110)
Sequence (P25109 whole entry): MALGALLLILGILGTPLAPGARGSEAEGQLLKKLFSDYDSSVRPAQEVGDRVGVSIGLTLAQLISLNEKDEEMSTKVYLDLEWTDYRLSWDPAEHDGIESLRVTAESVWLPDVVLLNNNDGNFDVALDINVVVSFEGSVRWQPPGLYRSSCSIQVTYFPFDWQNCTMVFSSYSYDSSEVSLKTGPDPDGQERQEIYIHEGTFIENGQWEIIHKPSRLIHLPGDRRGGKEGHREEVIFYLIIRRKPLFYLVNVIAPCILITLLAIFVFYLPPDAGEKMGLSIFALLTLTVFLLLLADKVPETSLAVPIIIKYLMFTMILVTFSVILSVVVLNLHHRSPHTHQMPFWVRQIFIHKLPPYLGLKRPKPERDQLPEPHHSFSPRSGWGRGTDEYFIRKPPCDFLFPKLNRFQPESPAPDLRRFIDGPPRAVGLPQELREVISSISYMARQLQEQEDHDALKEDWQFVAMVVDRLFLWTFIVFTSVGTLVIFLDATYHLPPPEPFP
Sequence (P25108 whole entry): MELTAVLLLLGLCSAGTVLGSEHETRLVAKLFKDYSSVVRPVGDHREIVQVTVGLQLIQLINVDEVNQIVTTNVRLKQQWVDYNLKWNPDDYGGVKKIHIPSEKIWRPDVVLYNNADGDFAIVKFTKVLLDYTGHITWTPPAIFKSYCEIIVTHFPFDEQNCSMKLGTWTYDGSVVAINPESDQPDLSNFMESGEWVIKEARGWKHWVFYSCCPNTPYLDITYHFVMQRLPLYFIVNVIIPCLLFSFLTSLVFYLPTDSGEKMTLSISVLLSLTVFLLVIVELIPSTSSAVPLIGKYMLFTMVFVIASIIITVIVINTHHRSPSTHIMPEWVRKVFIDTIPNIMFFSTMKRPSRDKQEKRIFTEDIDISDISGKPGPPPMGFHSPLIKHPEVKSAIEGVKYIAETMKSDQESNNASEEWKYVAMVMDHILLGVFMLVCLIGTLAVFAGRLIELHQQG
Sequence (P25110 whole entry): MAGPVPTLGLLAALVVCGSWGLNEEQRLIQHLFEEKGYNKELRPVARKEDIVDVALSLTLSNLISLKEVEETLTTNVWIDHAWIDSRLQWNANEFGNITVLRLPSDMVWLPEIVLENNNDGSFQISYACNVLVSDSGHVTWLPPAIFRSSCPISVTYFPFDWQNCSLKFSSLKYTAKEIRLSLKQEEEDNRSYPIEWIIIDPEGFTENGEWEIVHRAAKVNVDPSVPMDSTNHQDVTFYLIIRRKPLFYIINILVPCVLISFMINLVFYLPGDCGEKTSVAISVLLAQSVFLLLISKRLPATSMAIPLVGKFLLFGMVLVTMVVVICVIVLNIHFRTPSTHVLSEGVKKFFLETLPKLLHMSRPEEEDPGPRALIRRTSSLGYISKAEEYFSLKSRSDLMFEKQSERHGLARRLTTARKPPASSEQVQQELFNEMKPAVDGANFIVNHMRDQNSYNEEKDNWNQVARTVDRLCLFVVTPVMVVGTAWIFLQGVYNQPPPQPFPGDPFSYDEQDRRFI
Sequence (P09660 whole entry): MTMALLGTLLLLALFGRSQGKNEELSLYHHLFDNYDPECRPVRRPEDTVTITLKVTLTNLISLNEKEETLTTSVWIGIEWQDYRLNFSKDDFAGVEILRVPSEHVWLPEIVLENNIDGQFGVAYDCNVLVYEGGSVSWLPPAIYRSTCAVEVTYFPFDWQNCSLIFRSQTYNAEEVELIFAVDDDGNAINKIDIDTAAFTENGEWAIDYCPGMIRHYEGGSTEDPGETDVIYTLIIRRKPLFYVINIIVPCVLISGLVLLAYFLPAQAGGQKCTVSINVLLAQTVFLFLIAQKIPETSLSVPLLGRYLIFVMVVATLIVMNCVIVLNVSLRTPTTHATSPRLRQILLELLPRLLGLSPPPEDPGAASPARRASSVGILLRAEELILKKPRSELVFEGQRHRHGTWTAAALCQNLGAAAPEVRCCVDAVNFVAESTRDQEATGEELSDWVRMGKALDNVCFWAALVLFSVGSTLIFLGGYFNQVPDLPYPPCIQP
Experiment: Agonist activity at rat alpha1beta1deltaepsilon nAChR expressed in HEK293 cells for 2 mins by FLIPR assay
Type: cell-based
Details: not given

| SMILES | EC50 |
| --- | --- |
| COc1ccc2nc(NC3=NC[C@@]4(CN5CCC4CC5)O3)sc2c1 | > 100 µM |

Target: T1, Neuronal acetylcholine receptor subunit alpha-7
Experiment: Displacement of [125I]Tyr54-alpha-bungarotoxin from rat alpha7 nAChR expressed in HEK293 cell membranes co-expressing human RIC3 measured after 2 hrs by gamma counting method
Details: not given

| SMILES | Ki |
| --- | --- |
| COc1ccc2nc(NC3=NC[C@@]4(CN5CCC4CC5)O3)sc2c1 | 38 to 51 nM |
